Counter-ions that a name gives are not always drawn.
Legend:
[1] = Test Method D: stability to ethylene oxide sterilization (paclitaxel recovery by UPLC); assay type: physicochemical; settings: additive formulated with paclitaxel as solid coating
Protocol: A sample of a composition of the invention or a coated device of the invention was placed in a breathable polyethylene pouch (e.g. a Tyvek pouch) and subjected to at least 12 hours preconditioning at 43° C. and 65% relative humidity followed by 12 hours exposure to 600 mg/L ethylene oxide at 52° F. and 25% relative humidity. The chamber was then aerated at 32° F. for at least 12 hours until ethylene oxide concentration was less than 0.25 ppm.
After sterilization, the paclitaxel content on the device or the paclitaxel content of the composition was assessed (through device extraction for coated medical devices i.e. immersion of the whole device in an extraction solvent) using UPLC quantification as described in the evaluation methods section. For each device or composition, the percentage drug recovery after sterilization was calculated by normalizing the extracted paclitaxel amount by the theoretical paclitaxel amount loaded on the device, or present in the composition pre-sterilization.
Approximately 30 mg of excipient was weighed into a 7 mL glass vial and 6 mL of 75/25 v/v acetone/water was added. A small stirrer bar was added to each vial and all samples were stirred overnight at room temperature to ensure full dissolution. […] Percent paclitaxel recovery was calculated by normalizing to either theoretical initial loading or pre-sterilized samples.

[2] = in acetone, ethanol and aqueous mixtures thereof
Source text: As discussed in further detail below, coatings of the invention can be prepared by pipetting a solution containing therapeutic agent and excipient onto the device to be coated. […] Thus, in one embodiment the organic additive is not thiamine-HCl.

[3] = Early experiments on stability of organic additive in solution; assay type: physicochemical
Source text: Thus, vanillin is not suitable as an organic additive for the present invention.

SMILES	effect of additive on paclitaxel under ethylene oxide sterilization [1]	further results
NC(=O)c1cccnc1 [niacinamide]	nearly complete paclitaxel degradation	–
O=C([O-])c1ccccc1O.[Na+] [sodium salicylate]	cause degradation of the paclitaxel	–
Cc1ncc(C[n+]2csc(CCO)c2C)c(N)n1 [thiamine-HCl]	–	solubility of additive [2]: poor solubility
COc1cc(C=O)ccc1O [vanillin]	–	stability of additive in solution [3]: easily degraded in solution

Reference: patent US11839698B2, “Drug composition and coating” (priority 2014, dated 2023)
